Laboratory results as given in article PMC6628648, “Enabling microbial syringol conversion through structure-guided protein engineering” (Proceedings of the National Academy of Sciences of the …, 2019).

How the values were obtained:
WT GcoA = biological target: T1, WT GcoA (Amycolatopsis sp., UniProt P0DPQ7); test: biochemical; assay type: binding, Amycolatopsis sp. ATCC 39116; details: for %Fe(III) spin state conversion: WT GcoA, final high-spin (388 nm) divided by starting low-spin (417 nm)
T1 construct: GST (N, cleaved yes); made in house; host or cells: E. coli Rosetta 2 (DE3)

GcoA-F169A = GcoA-F169A (Amycolatopsis sp., UniProt P0DPQ7, F169A); test: End-point stoichiometry and coupling assay (formaldehyde by tryptophan assay, aromatics by HPLC, NADH by UV/vis); assay type: biochemical, Amycolatopsis sp. ATCC 39116; parameters: GST (N, cleaved yes); made in house; host or cells: E. coli Rosetta 2 (DE3); details: for Coupling efficiency: F169A, molar ratio formaldehyde produced per NADH consumed, 200 µM NADH, 200 µM aromatic substrate; for % Formaldehyde produced: referenced to NADH consumed; for formaldehyde produced at reaction completion: 100 μM substrate
From the text: Fig. 1. Quantitative analyses of substrate consumption and product generation indicate nearly complete coupling of NADH/O2 consumption to substrate O-demethylation for guaiacol and progressively more uncoupling for syringol and 3MC. […] Reactants and products were quantified when the UV/vis spectrum ceased changing and the reaction was deemed complete. The total NADH consumed is compared with the amounts of formaldehyde and demethylated aromatic compound produced. Pyrogallol, the O-demethylated product of 3MC, is unstable in air under the conditions used in the assay and was not detected. Error bars represent ±1 SD from three or more independent measurements. P values comparing NADH consumption and formaldehyde production were 0.035 for guaiacol, 0.20 for 100 µM syringol, 0.41 for 200 µM syringol, and 0.0035 for 3MC. For NADH consumption and aromatic product production, these P values were 0.011 for guaiacol, 0.00031 for 100 µM syringol, and 0.0084 for 200 µM syringol.
The [formaldehyde] produced on reaction with GcoA-F169A and substrates was determined using a colorimetric assay with tryptophan ([28], [42]); details are provided in SI Appendix.
HPLC was used to verify the O-demethylated product of GcoA-F169A GcoA/GcoB with guaiacol, syringol, or 3MC. In addition, discontinuous HPLC was used to determine the specific activity of aromatic product disappearance. Details are provided in SI Appendix. […]
vi = Vmax[S]/(KM + [S]) (4) […]
Formaldehyde determination. A colorimetric assay using tryptophan can be used to quantify the amount of formaldehyde produced in F169 GcoA/B reactions with guaiacol, syringol, or 3MC. 0.2 µM each of F169 GcoA mutants and GcoB were dissolved in air-saturated buffer (25 mM HEPES, 50 mM NaCl) in a cuvette at pH 7.5, 25 °C. 100 µg/mL catalase was added to each reaction to capture any H2O2 formed during the uncoupled reaction. 200 μM NADH was added and the background rate recorded. 100 (guaiacol, syringol, or 3MC) or 200 (syringol) μM of substrate was then added and the reaction monitored until there was no more change, due to either substrate, NADH or O2 depletion, whichever occurred first. 200 µL of the reaction was then quenched by adding 200 µL of a 0.1% tryptophan solution in 50% ethanol and 200 µL of 90% sulfuric acid. Upon thorough mixing, 40 µL of 1% FeCl3 was added. The solution was then incubated in a heating block for 90 min at 70 °C. After cooling, the absorbance was read at 575 nm and the [formaldehyde] calculated by using ε575 nm = 4.2 mM-1 cm-1, obtained with formaldehyde as a standard (1). A negative control included everything but the substrate and was used as a baseline.
HPLC for product identification and specific activity measurement. Analyte analysis of the above end-point reactions (100 μM guaiacol, syringol, or 3MC, or 200 μM syringol) was performed on an Agilent 1100 LC system (Agilent Technologies) equipped with a G1315B diode array detector (DAD). Each sample and standard was injected at a volume of 10 μL onto a Symmetry C18 column 5 μm, 4.6 x 150 mm column (Waters). The column temperature was maintained at 30 °C and the buffers used to separate the analytes of interest was 0.01% TFA in water (A)/ acetonitrile (B). The separation was carried out using a gradient program of: (A) = 99% and (B) = 1% at time t = 0 min; (A) = 99% and (B) = 1% at time t = 2 min, (A) = 50% and (B) = 50% at t = 8 min; (A) = 1% and (B) = 99% at t = 8.01 min; (A) = 99% and (B) = 1% at t = 10.01 min; (A) = 99% and (B) = 1% at t = 11 min. The flow rate was held constant at 1.5 mL min-1, resulting in a run time of 11 minutes. DAD wavelengths of 210 and 325 nm were used for analysis of the analytes of interest. Standard curves were generated using 0-500 μM of guaiacol, syringol, 3MC, catechol, and pyrogallol. Integrated intensities vs [standards] were plotted and the resulting standard curves used to quantify the reactants and products. […]

GcoA variant F169I = biological target: T2, GcoA variant F169I (Amycolatopsis sp., UniProt P0DPQ7, F169I); test: NADH consumption assay (specific activity) with GcoB; assay type: biochemical, Amycolatopsis sp. ATCC 39116; details: saturating (200 µM) substrate, pH 7.5, 25°C
T2 construct: GST (N, cleaved yes); made in house; host or cells: E. coli Rosetta 2 (DE3)

GcoA variant F169V = biological target: T3, GcoA variant F169V (Amycolatopsis sp., UniProt P0DPQ7, F169V); test: as above; assay type: biochemical, Amycolatopsis sp. ATCC 39116; details: saturating (200 µM) substrate, pH 7.5, 25°C
T3 construct: GST (N, cleaved yes); made in house; host or cells: E. coli Rosetta 2 (DE3)

[1] = GcoA-F169A, 100 µM substrate + 100 µM NADH
[2] = GcoA-F169A, 200 μM NADH, 210 μM O2
[3] = GcoA-F169A, NADH and syringol ∼200 μM each, 210 μM O2

T2 sequence (P0DPQ7 whole entry F169I): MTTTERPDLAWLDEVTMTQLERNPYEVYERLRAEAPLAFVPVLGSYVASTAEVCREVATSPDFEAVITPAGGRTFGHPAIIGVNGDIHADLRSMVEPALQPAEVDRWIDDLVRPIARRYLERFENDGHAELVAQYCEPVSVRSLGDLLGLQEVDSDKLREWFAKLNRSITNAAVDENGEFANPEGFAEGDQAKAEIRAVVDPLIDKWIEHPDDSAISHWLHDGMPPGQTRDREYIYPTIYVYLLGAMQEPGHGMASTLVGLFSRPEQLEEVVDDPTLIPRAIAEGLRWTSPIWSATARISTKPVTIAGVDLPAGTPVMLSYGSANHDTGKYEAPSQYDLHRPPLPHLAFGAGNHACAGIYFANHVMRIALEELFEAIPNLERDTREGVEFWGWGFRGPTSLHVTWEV
T3 sequence (P0DPQ7 whole entry F169V): as the sequence (P0DPQ7 whole entry F169I) above, with I169V counted along it
GcoA-F169A, sequence (P0DPQ7 whole entry F169A): as the sequence (P0DPQ7 whole entry F169I) above, with I169A counted along it
T1 sequence (P0DPQ7 whole entry): as the sequence (P0DPQ7 whole entry F169I) above, with I169F counted along it

SMILES	Kd (WT GcoA) [nM]	%Fe(III) spin state conversion (WT GcoA) [%]	Coupling efficiency (GcoA-F169A) [%]	% Formaldehyde produced (GcoA-F169A; [1]) [%]	Specific activity (GcoA variant F169I) [μmol sec-1 μmol-1 GcoA]	Specific activity (GcoA variant F169V) [μmol sec-1 μmol-1 GcoA]	% Formaldehyde produced (GcoA-F169A; GcoA-F169A, 100 µM substrate + 200 µM NADH) [%]	formaldehyde produced at reaction completion (GcoA-F169A; [2]) [µM]	singly demethylated intermediate 3MC observed at the end of the reaction (GcoA-F169A; GcoA-F169A, 100 μM syringol, 200 μM NADH, 210 μM O2) [µM]	3MC generated (GcoA-F169A; [3]) [µM]	formaldehyde generated (GcoA-F169A; [3]) [µM]	syringol consumed (GcoA-F169A; [3]) [µM]
COc1ccccc1O [guaiacol, 2-methoxyphenol]	6.5 ± 2	87 ± 1	103 ± 7	100 ± 10	1.4 ± 0.2	5.3 ± 0.2	–	–	–	–	–	–
COc1cccc(OC)c1O [syringol, 2,6-dimethoxyphenol]	–	56 ± 2	104 ± 6	125 ± 6	0.56 ± 0.2	4.1 ± 0.8	91 ± 8	170 ± 10	50 ± 4	120 ± 2	200 ± 3	150 ± 6
COc1cccc(O)c1O [3MC, 3-methoxycatechol]	–	62 ± 0.01	64 ± 10	52 ± 7	1.1 ± 0.7	5.7 ± 0.3	–	~100	–	–	–	–
